Test results as given in patent US20110305637A1, “RADIOLABELLED PDE10 LIGANDS” (Janssen Pharmaceutica N.V., priority 2009, published 2011).
Where “and” joins values, the source holds several entries; their conditions need not be identical. Identical values can stand only once.

Assay: Biodistribution study in male Wistar rats
Assay type: in vivo, rat
Settings: for % ID/g × kg in Blood / % ID/g × kg in Cerebellum / % ID/g × kg in Cerebrum + Cerebellum / % ID/g × kg in Cerebrum total / % ID/g × kg in Cortex / % ID/g × kg in Heart / % ID/g × kg in Hippocampus / % ID/g × kg in Kidneys / % ID/g × kg in Liver / % ID/g × kg in Lungs / % ID/g × kg in Rest of cerebrum / % ID/g × kg in Spleen + Pancreas / % ID/g × kg in Striatum: normalized for body weight
Method: (§1) The biodistribution study of [^18F]B-1 was carried out in male Wistar rats (body weight 250-350 g) at 2 min, 30 min and 60 min post injection (p.i.) (n=3/time point). Rats were injected with about 1.1 MBq of the tracer via tail vein under anesthesia (2.5% Isoflurane in O2 at 1 L/min flow rate) and sacrificed by decapitation at above specified time points. Blood and major organs were collected in tared tubes and weighed. The radioactivity in blood, organs and other body parts was measured using an automated gamma counter The distribution of radioactivity in different parts of the body at different time points p.i. of the tracer was calculated and expressed as percentage of injected dose (% ID), and as percentage of injected dose per gram tissue (% ID/g) for the selected organs. % ID is calculated as cpm in organ/total cpm recovered. For calculation of total radioactivity in blood, blood mass was assumed to be 7% of the body mass.
as §1, with “[^18F]B-2” for “[^18F]B-1”, “270-340” for “250-350”

[1] = 60 min p.i., % ID/g values normalized for the body weight

SMILES: [18F]CCCn1cc(-c2ccncc2)c(-c2ccc(OCc3ccc4ccccc4n3)cc2)n1 [[^18F]B-1]
- % ID/g × kg in Blood (30 min p.i.): 0.03 ± 0.00 % ID/g × kg
- % ID/g × kg in Cerebellum (30 min p.i.): 0.023 ± 0.00 % ID/g × kg
- % ID/g × kg in Cerebrum + Cerebellum (30 min p.i.): 0.03 ± 0.00 % ID/g × kg
- % ID/g × kg in Cerebrum total (30 min p.i.): 0.032 ± 0.00 % ID/g × kg
- % ID/g × kg in Cortex (30 min p.i.): 0.027 ± 0.01 % ID/g × kg
- % ID/g × kg in Heart (30 min p.i.): 0.07 ± 0.00 % ID/g × kg
- % ID/g × kg in Hippocampus (30 min p.i.): 0.021 ± 0.00 % ID/g × kg
- % ID/g × kg in Kidneys (30 min p.i.): 0.16 ± 0.01 % ID/g × kg
- % ID/g × kg in Liver (30 min p.i.): 1.03 ± 0.08 % ID/g × kg
- % ID/g × kg in Lungs (30 min p.i.): 0.35 ± 0.03 % ID/g × kg
- % ID/g × kg in Rest of cerebrum (30 min p.i.): 0.030 ± 0.00 % ID/g × kg
- % ID/g × kg in Spleen + Pancreas (30 min p.i.): 0.07 ± 0.00 % ID/g × kg
- % ID/g × kg in Striatum (30 min p.i.): 0.106 ± 0.00 % ID/g × kg
- % ID in Blood (60 min p.i.): 1.9 % ID and 1.94 ± 0.1 % ID
- % ID in Carcass (60 min p.i.): 27.96 ± 0.7 % ID
- % ID in Cerebellum (60 min p.i.): 0.012 ± 0.00 % ID
- % ID in Cerebrum total (60 min p.i.): 0.101 ± 0.01 % ID
- % ID in Cortex (60 min p.i.): 0.012 ± 0.00 % ID
- % ID in Heart (60 min p.i.): 0.17 ± 0.0 % ID
- % ID in Hippocampus (60 min p.i.): 0.003 ± 0.00 % ID
- % ID in Intestines (60 min p.i.): 14.72 ± 4.1 % ID
- % ID in Kidneys (60 min p.i.): 1.45 ± 0.1 % ID
- % ID in Liver (60 min p.i.): 41.44 ± 1.5 % ID
- % ID in Lungs (60 min p.i.): 0.32 ± 0.0 % ID
- % ID in Rest of cerebrum (60 min p.i.): 0.071 ± 0.01 % ID
- % ID in Spleen + Pancreas (60 min p.i.): 0.31 ± 0.0 % ID
- % ID in Stomach (60 min p.i.): 10.00 ± 2.5 % ID
- % ID in Striatum (60 min p.i.): 0.015 ± 0.00 % ID
- % ID in Urine (60 min p.i.): 1.87 ± 0.2 % ID
- % ID present in the liver and intestines in total (60 min p.i.): 56 % ID
- % ID present in the urinary system (60 min p.i.): ~3.3 % ID
- % ID/g in Blood (60 min p.i.): 0.08 ± 0.00 % ID/g
- % ID/g in Cerebellum (60 min p.i.): 0.04 ± 0.00 % ID/g
- % ID/g in Cerebrum + Cerebellum (60 min p.i.): 0.07 ± 0.00 % ID/g
- % ID/g in Cerebrum total (60 min p.i.): 0.07 ± 0.00 % ID/g
- % ID/g in Cortex (60 min p.i.): 0.06 ± 0.00 % ID/g
- % ID/g in Heart (60 min p.i.): 0.16 ± 0.00 % ID/g
- % ID/g in Hippocampus (60 min p.i.): 0.05 ± 0.01 % ID/g
- % ID/g in Kidneys (60 min p.i.): 0.46 ± 0.02 % ID/g
- % ID/g in Liver (60 min p.i.): 3.11 ± 0.06 % ID/g
- % ID/g in Lungs (60 min p.i.): 0.20 ± 0.02 % ID/g
- % ID/g in Rest of cerebrum (60 min p.i.): 0.07 ± 0.00 % ID/g
- % ID/g in Spleen + Pancreas (60 min p.i.): 0.19 ± 0.01 % ID/g
- striatum/blood ratio [1]: 3.0
- striatum/cerebellum ratio [1]: 5.6
- striatum/cortex ratio [1]: 4.4
- striatum/hippocampus ratio [1]: 5.2
- % ID/g × kg in Blood (60 min p.i.): 0.03 ± 0.00 % ID/g × kg
- % ID/g × kg in Cerebellum (60 min p.i.): 0.015 ± 0.00 % ID/g × kg
- % ID/g × kg in Cerebrum + Cerebellum (60 min p.i.): 0.02 ± 0.00 % ID/g × kg
- % ID/g × kg in Cerebrum total (60 min p.i.): 0.024 ± 0.00 % ID/g × kg
- % ID/g × kg in Cortex (60 min p.i.): 0.019 ± 0.00 % ID/g × kg
- % ID/g × kg in Heart (60 min p.i.): 0.05 ± 0.00 % ID/g × kg
- % ID/g × kg in Hippocampus (60 min p.i.): 0.016 ± 0.00 % ID/g × kg
- % ID/g × kg in Kidneys (60 min p.i.): 0.16 ± 0.01 % ID/g × kg
- % ID/g × kg in Liver (60 min p.i.): 1.04 ± 0.02 % ID/g × kg
- % ID/g × kg in Lungs (60 min p.i.): 0.07 ± 0.01 % ID/g × kg
- % ID/g × kg in Rest of cerebrum (60 min p.i.): 0.022 ± 0.00 % ID/g × kg
- % ID/g × kg in Spleen + Pancreas (60 min p.i.): 0.06 ± 0.01 % ID/g × kg
- % ID/g × kg in Striatum (60 min p.i.): 0.083 ± 0.01 % ID/g × kg
- Clearance, 2 min/30 min ratio for % ID/g values (Blood): 1.60
- Clearance, 2 min/60 min ratio for % ID/g values (Blood): 2.28
- Clearance, 2 min/30 min ratio for % ID/g values (Cerebellum): 4.37
- Clearance, 2 min/60 min ratio for % ID/g values (Cerebellum): 8.8 and 8.81
- Clearance, 2 min/30 min ratio for % ID/g values (Cerebrum total): 2.54
- Clearance, 2 min/60 min ratio for % ID/g values (Cerebrum total): 4.34
- Clearance, 2 min/30 min ratio for % ID/g values (Cortex): 3.81
- Clearance, 2 min/60 min ratio for % ID/g values (Cortex): 7.19
- Clearance, 2 min/30 min ratio for % ID/g values (Hippocampus): 2.54
- Clearance, 2 min/60 min ratio for % ID/g values (Hippocampus): 4.33
- Clearance, 2 min/30 min ratio for % ID/g values (Rest of cerebrum): 2.54
- Clearance, 2 min/60 min ratio for % ID/g values (Rest of cerebrum): 4.53
- Clearance, 2 min/30 min ratio for % ID/g values (Striatum): 0.97
- Clearance, 2 min/60 min ratio for % ID/g values (Striatum): 1.6 and 1.62
- % ID present in the carcass (at all time points examined): ~26 % ID
